According to PMC8876231, “Analogues of Natural Chalcones as Efficient Inhibitors of AKR1C3” (Metabolites, 2022):

Target: T1, AKR1C2 (Homo sapiens, UniProt P52895)
T1 construct: Myc (N); expressed in transfected cells; host or cells: HEK293
T1 sequence (P52895 1-323): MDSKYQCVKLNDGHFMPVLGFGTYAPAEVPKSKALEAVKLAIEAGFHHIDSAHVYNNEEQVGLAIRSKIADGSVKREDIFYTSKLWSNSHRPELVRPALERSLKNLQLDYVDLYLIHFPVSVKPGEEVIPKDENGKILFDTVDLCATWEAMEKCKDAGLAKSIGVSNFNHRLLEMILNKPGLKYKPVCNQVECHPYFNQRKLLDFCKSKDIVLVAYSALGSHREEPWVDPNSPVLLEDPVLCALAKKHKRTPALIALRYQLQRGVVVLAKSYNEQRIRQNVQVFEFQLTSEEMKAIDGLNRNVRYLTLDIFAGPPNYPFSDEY
Test: AKR1C2 inhibition assay (DHT to 3α-androstanediol)
Format: biochemical
Settings: 10 µM compound, mean ± SD
Text: For enzymatic assays and inhibitor testing, all enzymes were cloned into bacterial or mammalian expression vectors. AKR1C3 and the human hydroxysteroid dehydrogenases HSD17B1, HSD17B2, HSD17B4 (SDR domain), HSD17B7, and HSD17B10 were cloned into a pGEX vector as described in [71, 72]. The coding sequences for AKR1C1, AKR1C2, and AKR1C4 were cloned by Gateway technology into the pcDNA3-N-MycDest vector according to the manufacturer’s instructions (Life Technologies, Carlsbad, CA, USA). The p11 plasmid coding for HSD17B14 (S205 variant) was a gift from Udo Opperman SGC Oxford, UK. For assays with HSD17B3, HEK293 cells stably expressing HSD17B3 were used. Enzymes were expressed in E. coli BL21 DE3 or E. coli BL21 DE3 Codon Plus RP (Stratagene, San Diego, CA, USA) or in HEK293 cells as described in [71, 72, 73]. Bacterial and cell pellets were stored at −20 °C and −80 °C, respectively, until use.
Inhibition assays were carried out as described in [71, 74]. […] For a detailed assay setup, see Supplementary Table S6. The incubation at 37 °C was stopped with 0.21 M ascorbic acid in methanol:acetic acid 99:1 (v:v) after the time needed to convert approximately 30% of the substrate in a control assay with 1% DMSO, without inhibitor candidate. Substrates and products were extracted from the reaction mixture by solid-phase extraction using C18 cartridges (Phenomenex, Aschaffenburg, Germany) and separated by RP–HPLC in a Beckman–Coulter HPLC Gold system, using the Luna 5 µm C18(2), 125 × 4.0 mm column (Phenomenex). […] Radioactivity was detected by online scintillation counting by using a radioactivity monitor (LB506D, Berthold Technologies, Bad Wildbad, Germany). Conversion of substrates to products was determined by integration of the peak area of the substrate and product peaks in percent. […]

COc1ccc(/C=C/C(=O)c2c(O)cc(O)cc2OC)cc1 [Compound 18]
Inhibition of AKR1C2 at 10 µM in %: not more than 42.3%
Inhibition of AKR1C2 at 10 µM in % (listed as 18 (MF11)): 21.4 ± 5.1%

O=C(/C=C/c1ccc(Cl)cc1Cl)c1c(O)cc(O)cc1O [Compound 23, 2,4-dichloro-2′,4′,6′-trihydroxychalcone]
inhibition at 10 µM: 94 ± 0.4%
